Test results from patent US10434079B2, “Compositions and methods for the treatment of fatty acid metabolism disorders” (The Children's Hospital of Philadelphia, priority 2013, dated 2019).
Entries after “also recorded” stand apart in the source; their conditions may differ.

What was measured:
[1] = tested on: ob/ob mice; assay: Liver histology and liver/serum triglyceride concentrations in ob/ob mice; format: in vivo, mouse; conditions: GSNO-injected vs PBS-injected ob/ob mice
Text: Formalin-fixed liver sections were stained with Trichrome Stain Kit (Sigma) according to the manufacturer's instructions. Triglycerides were extracted from liver according to the Folch method (Folch et al. (1957) J. Biol. Chem., 226:497-509). Serum and liver triglyceride concentrations were quantified with a triglyceride quantification kit following the manufacturer's instructions (Abcam). Leptin-deficient mice develop liver steatosis spontaneously under normal chow diet starting at 4 to 5 weeks of life that is characterized by a diminished rate of palmitate oxidation and accumulation of fat droplets in the form of triglycerides within the hepatocytes (Brix et al. (2002) Mol. Genet. Metab., 75:219-226; de Oliveira et al. (2008) J. Am. Coll. Nutr., 27:299-305). […] This significant reduction in the rate of palmitoyl-CoA oxidation indicated a deficiency in mitochondrial β-oxidation of fatty acids. […] GSNO was used to deliver nitric oxide equivalents because of the extensive use of this pharmacological agent in cellular models to modify proteins by S-nitrosylation […] cellular permeability (Hara et al. (2005) Nat. Cell Biol., 7:665-674; Chung et al. (2004) Science 304:1328-1331). […] Moreover, the restoration of palmitoyl-CoA oxidation in GSNO-injected ob/ob mice was associated with a significant reduction of the concentration of liver triglycerides. […]

[2] = molecular target: T1, VLCAD (Mus musculus, UniProt P50544)
T1 sequence (P50544 42-656): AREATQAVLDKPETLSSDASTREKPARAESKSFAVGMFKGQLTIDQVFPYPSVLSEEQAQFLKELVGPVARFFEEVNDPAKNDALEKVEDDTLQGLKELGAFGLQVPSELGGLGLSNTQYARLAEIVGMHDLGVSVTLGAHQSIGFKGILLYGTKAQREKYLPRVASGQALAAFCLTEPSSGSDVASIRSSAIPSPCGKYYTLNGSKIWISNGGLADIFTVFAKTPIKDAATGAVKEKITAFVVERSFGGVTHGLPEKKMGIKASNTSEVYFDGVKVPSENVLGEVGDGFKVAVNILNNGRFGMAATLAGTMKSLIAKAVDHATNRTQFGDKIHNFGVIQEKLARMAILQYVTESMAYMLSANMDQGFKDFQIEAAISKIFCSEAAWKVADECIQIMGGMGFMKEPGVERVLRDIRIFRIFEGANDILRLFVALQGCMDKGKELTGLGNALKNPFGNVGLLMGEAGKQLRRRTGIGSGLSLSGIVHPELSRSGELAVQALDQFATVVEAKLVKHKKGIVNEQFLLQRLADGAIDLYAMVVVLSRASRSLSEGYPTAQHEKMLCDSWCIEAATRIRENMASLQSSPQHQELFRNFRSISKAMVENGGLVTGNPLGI

[3] = molecular target: T1, VLCAD; assay: Quantification of S-nitrosylated VLCAD by organomercury capture in liver of treated mice; format: in vivo; parameters: Liver homogenate (final concentration of 0.03 μg/μl) or cell lysate; from tissue; host or cells: mouse liver (C57BL/6J wild-type, ob/ob, eNOS-/-); conditions: ob/ob mouse liver, from 25% S-nitrosylated VLCAD
Experimental: A detailed experimental procedure for the preparation and activation of columns, homogenate preparation for reaction with organic mercury resin, has been described (Doulias et al. (2010) Proc. Natl. Acad. Sci., 107:16958-16963). Three biological replicates from each organ were analyzed. […] The false identification rate was <6% for brain and <3% for all other organs. For washes, stringent conditions were selected due to the differences in lipid content among the six organs. Columns were initially washed with 50 bed volumes of 50 mM tris-HCl (pH 7.4) containing 300 mM NaCl and 0.5% SDS, followed by 50 bed volumes of the same buffer containing 0.05% SDS. Columns were washed with 50 bed volumes of 50 mM tris-HCl containing 300 mM NaCl (pH 7.4), 1% Triton X-100, and 1 M urea, followed by 50 bed volumes of the same buffer containing 0.1% Triton X-100 and 0.1 M urea. Finally, columns were washed with 200 bed volumes of water before proteins were eluted with 10 ml of 50 mM β-mercaptoethanol in water. Samples were concentrated and analyzed by gel-LC (liquid chromatography)-MS/MS analysis. For on-column digestion after the final wash with water, the columns were washed with 10 bed volumes of 0.1 M ammonium bicarbonate. Bound proteins were subjected to digestion by the addition of Trypsin Gold (1 μg/ml) (Promega) in one bed volume of 0.1 M […] in the dark for 16 hours at room temperature. […]

N[C@@H](CCC(=O)N[C@@H](CSN=O)C(=O)NCC(=O)O)C(=O)O [GSNO, S-nitrosoglutathione]
fat deposits in liver slices (trichrome histology) [1]: diminished fatty acid deposition; also recorded: fewer fat deposits | VLCAD specific activity of untreated eNOS-/- relative to eNOS-/- liver tissue treated with GSNO ([2]; 5 μM GSNO 30 minutes prior to the assay, 0.25 mM palmitoyl-CoA): significantly lower | KM for VLCAD enzymatic activity, treated vs untreated homogenate ([2]; eNOS-/- liver homogenates treated ex vivo with GSNO): increased five-fold | S-nitrosylation of VLCAD at Cys238 ex vivo ([2]; eNOS-/- liver homogenates treated with GSNO): readily modified | increase of catalytic efficiency (kcat/KM) of S-nitrosylated VLCAD vs unmodified protein [3]: 29 fold
